Counter-ions that a name gives are not always drawn. Like-named read-outs stand apart in the source and are kept apart here. One block for each compound: values may come before it.
Legend:
[1] = test system: NMDA-stimulated 3H-acetylcholine release, striatum sections; assay: Inhibition of NMDA-stimulated 3H-acetylcholine release from striatum sections of the rat brain; assay type: cell-based
Protocol: 2. Inhibition of ^3 H-acetylcholine release from striatum sections of the rat brain
Test principle: For the test, fresh striatum sections from rat brain were rinsed with buffer solution in a special chamber and the release of the tritium-labeled acetylcholine was measured after stimulation with NMDA. Preparations having NMDA-antagonist action inhibit acetylcholine release.
Experimental protocol: The superfusion experiments were carried out by the method of Wichman et al. (Naunyn-Schmied. Arch. Pharmacol., 338 (1988), 623-631). Rat brain sections, 0.5 mm thick, were preincubated for 30 min in 2 ml of incubation medium which contains 0.1 μmol/l of ^3 H-choline having a specific activity of 80 Ci/mmol. In each of 6 superfusion chambers, a section was transferred and superfused for 90 min at a rate of 1.5 ml/min. 2 min fraction of the superfusate were continuously collected. Each section was superfused twice with 25 μmol/l of NMDA of two minutes each time in order to stimulate the release of acetylcholine. The first stimulus (S1) takes place between the 54th and the 56th minute and the 2nd stimulus (S2) between the 76th and 78th minute. The incubation medium contained, in mmol/l: NaCl 118, KCl 4.8, CaCl2 1.2, MgSO4 1.2, NaHCO3 25, KH2 PO4 1.2 and glucose 10. The medium was saturated with Carbogen at 37° C. The pH was adjusted to 7.4 NMDA and the novel preparations to be tested were dissolved in superfusion medium. The superfusion was carried out using Mg^2+ -free medium. Tritium from the dissolved sections and from the superfusate was determined by liquid scintillation counting using a Packard® 1900 CA (Frankfurt) at a 50% efficiency.
Calculation of the Results
Basal release and NMDA-stimulated release for S1 and S2 were expressed in %/min of each fraction (Limberger et al, Naunyn Schmied. Arch. Pharmacol. 339 (1988), 53-61).
The value for the stimulated release S2 /S1 was calculated for the control as 0.69±0.09. The value decreases if a substance, such as, for example, the NMDA receptor antagonist CPP (3-(+)-2-carboxypiperazin-4-ylpropyl-1-phosphonic acid) known from the literature inhibited the NMDA-stimulated release. The inhibition of the stimulated release by preparations was calculated in percent, relative to the control value, and is indicated in Table 4.

[2] = test system: NMDA receptor-channel complex; assay: Inhibition of 3H-MK-801 binding to membranes from rat brain; settings: preparation concentration 50 μM; 3H-MK801 1 nM
Protocol: 3. Inhibition of ^3 H-MK-801 binding to membranes from rat brain
Test principle: MK-801 is a non-competitive antagonist which binds to ion channels coupled to NMDA receptors (Yoneda et al., Brain Res. 499 (1989), 305). Membranes from whole brain containing preparation and ^3 H-MK-801 are incubated in the test. The binding of ^3 H-MK-801 or its displacement by preparations (antagonists) is determined by radiochemical methods.
Experimental protocol: The binding experiments are carried out by the method of Reynolds et al. (Proc. Natl. Acad. Sci. USA, 84 (1987), 7744). Membrane preparation is first carried out according to Reynolds. Test samples are then pipetted, buffer and test preparation being initially introduced, then preincubated with protein for 2 minutes, and initiated using ^3 H-MK801. The membranes are thawed at 37° C., incubated at 37° C. for 10 minutes and homogenized for 15 seconds at half the maximum speed by means of a Polytron, then used in the cool state again. The incubation medium contains: pH 7.4 Hepes buffer 20 mM, preparations in three concentrations 5 μM, 10 μM and 50 μM, membranes 500 μg/ml of test solution, ^3 H-MK801 1 nM. Incubation is carried out at room temperature (23° C.) for 60 minutes and is then stopped by filtration. For this purpose, glass fiber paper No. 32 from Schleicher and Schull, which had been soaked in 0.03% polyethyleneimine for 30 minutes on the day before the experiment are counted in 4 ml of "Packard 199™" Scintillation fluid (Frankfurt). Tritium is determined by liquid scintillation counting using a Packard 1500.
Calculation of the results: The calculation of the binding in femtomol/mg of protein over a period of 60 min. was carried out using a small calculator (HP-97). If a substance antagonizes the binding, the value decreases. Substance activities are indicated in Table 5 as percentages, i.e. in % binding compared to the control. The activity of the comparison preparation CPP (3-(+)-2-carboxypiperazin-4-ylpropyl-1-phosphonic acid) at 5 μM, 10 μM and 50 μM is always determined to check the test.

[3] = test system: high affinity 3H-D-aspartate absorption, synaptic vesicles (synaptosomes) from rat cortex; assay: "High affinity" absorption of 3H-aspartate in a vesicle preparation from rat brain; assay type: biochemical; settings: relative to control values (100%)
Protocol: 1. "High affinity" absorption of ^3 H-aspartate in a vesicle preparation from rat brain.
Test principle: Fresh synaptic vesicles (synaptosomes) from rat cortex are incubated with buffer solution and ^3 H-D-aspartate and ^3 H-D-aspartate in the vesicles is measured. Preparations which in comparison to control synaptosomes increase the high affinity ^3 H-D-aspartate absorption and those which prevent the loss of ^3 H-D-aspartate by reliberation are regarded as particularly interesting.
Experimental protocol: The experiments for ^3 H-D-aspartate absorption were carried out by the method of Anand et al. (Biochem. Pharmacol., 35 (1986), 1055-1057). The synaptic vesicles were dissected out of cerebral cortex from male Sprague-Dawley rats. The preparations were tested at four concentrations as double samples in parallel with control samples containing buffer. The incubation medium (pH 7.4) contains: 1.2 mM KH2 PO4, 5 mM KCl, 5 mM pyruvate, 1.2 mM glucose, 1.2 mM MgCl2, 114 mM NaCl, 25 mM NaHCO3. For the non-specific ^3 H-D-aspartate absorption, NaCl was replaced by 114 mM choline chloride and NaHCO3 by 25 mM KHCO3. An aliquot of the vesicle suspension (about 25 μg/ml of test solution) was added to the test sample which was temperature controlled at 37° C. and aerated with Carbogen (5% CO2, 95% O2) and preincubated for 2 minutes. The three minutes incubation for the amino acid absorption was started by addition of 50 μl of ^3 H-D-aspartate (specific activity 25 Ci/mmol, 10 pmol/ml of test solution). The vesicles were separated from the incubation medium by filtration and additional washing of the adhering labeled amino acids using a Titertek cell harvester (Flow Laboratories, Meckenheim). The ^3 H-D-aspartate absorption was measured by means of a liquid scintillation counter (Canberra-Packard, Model 1500, Frankfurt).
The preparation activity is indicated in percent of the specific ^3 H-D-aspartate absorption, relative to control values (100%), in Table 3. Adenosine triphosphate (ATP) was used for comparison as the standard substance (see Table 3) and at 1 mM caused a 35% increase in the ^3 H-D-aspartate absorption.

NMDA-induced cramps = assay: Inhibition of NMDA-induced cramps in the mouse; assay type: in vivo; settings: po, 1 h
Protocol: 4. Inhibition of NMDA-induced-cramps in the mouse
The examples listed below show neuroprotective activity in that they antagonize the cramps induced by NMDA (N-methyl-(D)-aspartate). To this end, intravenous injections of 20-30 mg/kg of NMDA are carried out on a male NMRI (Naval Medical Research Institute) mice of 22-24 g body weight, which leads to stereotypes, clonic cramps and in the majority of cases to mortality. In order to investigate an NMDA-antagonist activity of the test substances, they are administered orally one hour before NMDA. The animals are then observed for the abovementioned symptoms for up to 60 min. The number of animals with clonic cramps and the incidence of mortality, expressed in percent change compared to the control group, is regarded as the evaluation criterion.

[4] = Toxicity (LD50) in the mouse; settings: in vivo, iv
Excerpt: As the examples investigated show considerable differences in toxicity compared to the standard substances, the LD50 values are also listed in Table 6,

[5] = test system: CA1 pyramidal cells of the hippocampus after forebrain ischemia; assay: Neuroprotection after forebrain ischemia in the gerbil; settings: 15 minutes before ischemia; for Cell necroses (% change): histopathological score CA1, treated versus control group; for Behavior score (% change): treated versus control group
Protocol: A 5-minutes' ischemia of the forebrain with subsequent recirculation is produced in 20 male Mongolian gerbils under halothane anesthesia by bilateral closure of the corotid artery by means of aneurysm clips. 7 days later, the animals are decapitated under halothane anesthesia, the brains are fixed by immersion in Carnoy solution and the extent of neuron damage in the CA1 region of the hippocampus is determined "blind" with the aid of a 5-stage histopathological score. The test substance is administered intraperitoneally or orally 15 minutes before ischemia to each group of 10 gerbils. One ischemic control group, also of 10 animals, is treated with the respective solvents per test substance.

[6] = preparation concentration 10 μM, 25 μmol/l NMDA stimulus, relative to control S2/S1, read-out: Inhibition of 3H-acetylcholine release from striatum sections, Inhibition (%)
[7] = preparation concentration 500 μM
[8] = preparation concentration 10 μM
[9] = 50 mg/kg p.o., one hour before NMDA i.v., change compared to control group, read-out: Inhibition of convulsions
[10] = read-out: Inhibition of mortality
[11] = preparation concentration 100 μM
[12] = read-out: Inhibition of 3H-acetylcholine release from striatum sections, Inhibition (%)

Inhibition of 3H-MK-801 binding to the NMDA receptor-channel complex, inhibition (%) [2]: 81%
SMILES: O=C(O)C1CN(CCCP(=O)(O)O)CCN1 (racemic) [CPP, 3-(+)-2-carboxypiperazin-4-ylpropyl-1-phosphonic acid, reference compound]
inhibition at 10 µM [1, 6]: 30%

Inhibition of 3H-MK-801 binding to the NMDA receptor-channel complex, inhibition (%) [2]: 43%
SMILES: CC(C)[C@@H]1CC[C@@H](C)C[C@H]1OC(=O)C1CC(C(=O)O)=NO1 (single isomer, unassigned; (-)) [Example 57, (-)-menthyl-3-carboxy-2-isoxazoline-5-yl-carboxylatedicyclohexylammonium salt]

SMILES: NCc1cc(C(=O)O)no1 [Example 1, 3-Carboxy-5-aminomethylisoxazole]
Stimulation of the 3H-D-aspartate absorption, Stimulation (%) [3, 7]: 15% | inhibition at 10 µM [1, 6]: 13% | inhibition in vivo at 63 mg/kg (NMDA-induced cramps; 63 mg/kg p.o., one hour before NMDA i.v., change compared to control group, read-out: Inhibition of convulsions): 50% | LD50 [4]: > 200 mg/kg

SMILES: O=C(O)c1cc(CNCc2ccccc2)on1 [Example 2, 5-Benzylaminomethyl-3-carboxyisoxazole]
Stimulation of the 3H-D-aspartate absorption, Stimulation (%) [3, 7]: 12% | Inhibition of 3H-MK-801 binding to the NMDA receptor-channel complex, inhibition (%) [2]: 10%

SMILES: Cl.NCc1cc(CCC(=O)OCc2ccccc2)no1 [Example 5, Benzyl 5-aminomethylisoxazole-3-propionate hydrochloride]
Stimulation of the 3H-D-aspartate absorption, Stimulation (%) [3, 8]: 26% | Inhibition of 3H-MK-801 binding to the NMDA receptor-channel complex, inhibition (%) [2]: 78%

SMILES: CC(C)[C@H]1CC[C@H](C)C[C@@H]1OC(=O)CCc1cc(CN)on1 [Example 7, (+)-menthyl 5-aminomethylisoxazole-3-propionate toluene-4-sulfonate]
inhibition at 10 µM [1, 6]: 28%

SMILES: CC(C)[C@@H]1CC[C@@H](C)C[C@H]1OC(=O)CCc1cc(CN)on1 [Example 8, (-)-menthyl 5-aminomethylisoxazole-3-propionate toluene-4-sulfonate]
Stimulation of the 3H-D-aspartate absorption, Stimulation (%) [3, 8]: 13% | inhibition at 10 µM [1, 6]: 30% | inhibition in vivo at 50 mg/kg (NMDA-induced cramps; [9]): 70% | inhibition in vivo at 50 mg/kg (NMDA-induced cramps; [10]): 100% | LD50 [4]: 50 to 100 mg/kg | Cell necroses (% change) ([5]; 50 mg/kg p.o.): -46 % change | Behavior score (% change) ([5]; 50 mg/kg p.o.): 0 % change

SMILES: NCc1cc(CCC(=O)O)no1 [Example 12, 5-Aminomethylisoxazole-3-propionic acid]
Stimulation of the 3H-D-aspartate absorption, Stimulation (%) [3, 7]: 17% | inhibition in vivo at 50 mg/kg (NMDA-induced cramps; [9]): 45% | inhibition in vivo at 50 mg/kg (NMDA-induced cramps; [10]): 60% | LD50 [4]: > 100 mg/kg | Cell necroses (% change) ([5]; 10 mg/kg i.p.): -32 % change | Behavior score (% change) ([5]; 10 mg/kg i.p.): 0 % change | Cell necroses (% change) ([5]; 50 mg/kg p.o.): -14 % change | Behavior score (% change) ([5]; 50 mg/kg p.o.): 0 % change

SMILES: CC(C)[C@@H]1CC[C@@H](C)C[C@H]1OC(=O)CCc1cc(C[N+](C)(C)C)on1 [Example 18, (-)-Menthyl 5-trimethylammoniomethylisoxazole-3-propionate iodide]
Stimulation of the 3H-D-aspartate absorption, Stimulation (%) [3, 11]: 46% | inhibition at 10 µM [1, 6]: 22% | Cell necroses (% change) ([5]; 50 mg/kg p.o.): -23 % change | Behavior score (% change) ([5]; 50 mg/kg p.o.): +15 % change

SMILES: CC(C)[C@H]1CC[C@H](C)C[C@@H]1OC(=O)CCc1cc(CNC(=O)[C@@H](N)Cc2ccccc2)on1 [Example 20, (+)-Menthyl 5-(L-phenylalanylamino)methylisoxazole-3propionate hydrochloride]
inhibition at 10 µM [1, 6]: 18% | inhibition in vivo at 50 mg/kg (NMDA-induced cramps; [9]): 10% | inhibition in vivo at 50 mg/kg (NMDA-induced cramps; [10]): 100% | LD50 [4]: 25 to 50 mg/kg

SMILES: COC(=O)CCc1cc(CNC(=O)[C@@H](N)Cc2ccccc2)on1.Cl [Example 22, Methyl 5-(L-phenylalanylamino)methylisoxazole-3-propionate hydrochloride]
Stimulation of the 3H-D-aspartate absorption, Stimulation (%) [3, 11]: 23% | inhibition at 10 µM [1, 6]: 15%

SMILES: O=C(O)CCC1=NOC(c2ccccn2)C1 (stereo not drawn) [Example 33, 3-(2-Carboxyethyl)-5-(2-pyridyl)-2-isoxazoline]
inhibition at 10 µM [1, 6]: 26%

SMILES: COC(=O)CCC1CC(CN)=NO1 (stereo not drawn) [Example 34, Methyl 3-aminomethyl-2-isoxazoline-5-propionate toluene-4-sulfonate]
inhibition at 10 µM [1, 12]: 9%

SMILES: O=C(O)C1=NOC(C(=O)O)C1 (stereo not drawn) [Example 56, 3,5-dicarboxyl-2-isoxazoline]
Stimulation of the 3H-D-aspartate absorption, Stimulation (%) [3, 7]: 17% | inhibition at 10 µM [1, 6]: 11%

SMILES: O=C(O)CCc1cc(CO)on1 [Example 59, 5-Hydroxylmethyl-isoxazole-3-propionate sodium salt]
inhibition at 10 µM [1, 12]: 26%

— patent US5273989A, “3,5-disubstituted 2-isoxazolines and isoxazoles, agents containing them and their use” (Hoechst Aktiengesellschaft, priority 1990, dated 1993)
